Patent US6784314B2, “Process for producing amine derivatives” (Takeda Chemical Industries, Ltd., priority 2000, dated 2004)
Counter-ions that a name gives are not always drawn.

Key:
β-amyloid protein = test: action of inhibiting the production and secretion of β-amyloid protein
[1] = stability on storage for a long time under usual conditions; assay type: physicochemical

transfer to the brain (transfer to the brain): excellent in transfer to the brain
stability (denaturation after storage) [1]: very excellent in stability
Compound: CN(C)CC[C@@H]1CCc2cc(OCc3ccc(-c4ccccc4)cc3)ccc2C1 [Compound (V′), (R)-(+)-6-(4-biphenylyl)methoxy-2-[2-(N,N-dimethylamino)ethyl]tetralin hydrochloride monohydrate]
action of inhibiting the production and secretion of β-amyloid protein (β-amyloid protein): excellent
toxicity (toxicity): low toxic
